This assay deals with human wild-type CFTR (Homo sapiens, UniProt P13569). Kind of assay: Short-circuit current in FRT cells expressing wild-type human CFTR. Type of assay: cell-based. On the set-up: expressed in transfected cells. As for the experimental part:
Short-circuit current was measured in FRT cells stably expressing wild-type human CFTR cultured on porous filters as described. The basolateral solution contained 130 mM NaCl, 2.7 mM KCl, 1.5 mM KH2PO4, 1 mM CaCl2, 0.5 mM MgCl2, 10 mM glucose, and 10 mM Na-HEPES (pH 7.3, 37° C.). In the apical solution 65 mM NaCl was replaced by Na gluconate, and CaCl2 was increased to 2 mM, and the basolateral membrane was permeabilized with 250 μg/ml amphotericin B. Short-circuit current was measured in freshly harvested adult mouse colon at 37° C. using symmetrical Krebs-bicarbonate buffer.
(§1) Fischer rat thyroid (FRT) cells stably expressing wild-type human CFTR were cultured on Snapwell inserts (Corning Costar, Corning N.Y., USA) for short-circuit current (Isc) measurements. After 6-9 days in culture, when the transepithelial resistance was >1000 Ω/cm^2, the inserts were mounted in an Ussing chamber system (World Precision Instruments, Sarasota, Fla., USA). The basolateral solution contained 130 mM NaCl, 2.7 mM KCl, 1.5 mM KH2PO4, 1 mM CaCl2, 0.5 mM MgCl2, 10 mM glucose, and 10 mM Na-HEPES (pH 7.3). In the apical bathing solution, 65 mM NaCl was replaced by Na gluconate, and CaCl2 was increased to 2 mM. Both solutions were bubbled with air and maintained at 37° C. The basolateral membrane was permeabilized with 250 μg/ml amphotericin B (26, 27). Hemichambers were connected to a DVC-1000 voltage clamp via Ag/AgCl electrodes and 3 M KCl agar bridges for Isc recording.
Short-circuit current measurement. Short-circuit current was measured in FRT cells stably expressing wild-type human CFTR cultured on porous filters as described. The basolateral solution contained 130 mM NaCl, 2.7 mM KCl, 1.5 mM KH2PO4, 1 mM CaCl2, 0.5 mM MgCl2, 10 mM glucose, and 10 mM Na-HEPES (pH 7.3, 37° C.). In the apical solution 65 mM NaCl was replaced by Na gluconate, and CaCl2 was increased to 2 mM, and the basolateral membrane was permeabilized with 250 μg/ml amphotericin B. Short-circuit current was measured in freshly harvested adult mouse colon at 37° C. using symmetrical Krebs-bicarbonate buffer.
as §1, with “Short-circuit current. Fischer” for “Fischer”
Short-circuit current measurement. Short-circuit current measurements were done as described. Briefly, Snapwell (Corning Costar, Corning, N.Y.) inserts containing CFTR-expressing FRT cells or human bronchial epithelial cells were mounted in Ussing chambers (Physiological Instruments, San Diego, Calif.). For FRT cells the hemichambers were filled with 5 ml of HCO3^−-buffered solution (basolateral) and half-Cl^− solution (apical), and the basolateral membrane was permeabilized with 250 μg/ml amphotericin B. Symmetrical HCO3^−-buffered solutions were used for human bronchial epithelial cells. Solutions were bubbled with 95% O2/5% CO2 and maintained at 37° C., and short-circuit current was measured on a DVC-1000 voltage clamp (World Precision Instruments Inc., Sarasota, Fla.) using Ag/AgCl electrodes and 3 M KCl agar bridges.

[1] abbreviates: FRT cells expressing human wild-type CFTR.
[2] abbreviates: FRT cells expressing human wild-type CFTR, read-out: EC50 for CFTR activation (short-circuit current).

Entries after “also recorded” stand apart in the source; their conditions may differ. Read-outs that look alike come from different tables or passages of the source.

Five molecules from US11230535B2, “CFTR regulators and methods of use thereof” (THE REGENTS OF THE UNIVERSITY OF CALIFORNIA, priority 2015, dated 2022) can be followed below.

Sequence of human wild-type CFTR (P13569 whole entry): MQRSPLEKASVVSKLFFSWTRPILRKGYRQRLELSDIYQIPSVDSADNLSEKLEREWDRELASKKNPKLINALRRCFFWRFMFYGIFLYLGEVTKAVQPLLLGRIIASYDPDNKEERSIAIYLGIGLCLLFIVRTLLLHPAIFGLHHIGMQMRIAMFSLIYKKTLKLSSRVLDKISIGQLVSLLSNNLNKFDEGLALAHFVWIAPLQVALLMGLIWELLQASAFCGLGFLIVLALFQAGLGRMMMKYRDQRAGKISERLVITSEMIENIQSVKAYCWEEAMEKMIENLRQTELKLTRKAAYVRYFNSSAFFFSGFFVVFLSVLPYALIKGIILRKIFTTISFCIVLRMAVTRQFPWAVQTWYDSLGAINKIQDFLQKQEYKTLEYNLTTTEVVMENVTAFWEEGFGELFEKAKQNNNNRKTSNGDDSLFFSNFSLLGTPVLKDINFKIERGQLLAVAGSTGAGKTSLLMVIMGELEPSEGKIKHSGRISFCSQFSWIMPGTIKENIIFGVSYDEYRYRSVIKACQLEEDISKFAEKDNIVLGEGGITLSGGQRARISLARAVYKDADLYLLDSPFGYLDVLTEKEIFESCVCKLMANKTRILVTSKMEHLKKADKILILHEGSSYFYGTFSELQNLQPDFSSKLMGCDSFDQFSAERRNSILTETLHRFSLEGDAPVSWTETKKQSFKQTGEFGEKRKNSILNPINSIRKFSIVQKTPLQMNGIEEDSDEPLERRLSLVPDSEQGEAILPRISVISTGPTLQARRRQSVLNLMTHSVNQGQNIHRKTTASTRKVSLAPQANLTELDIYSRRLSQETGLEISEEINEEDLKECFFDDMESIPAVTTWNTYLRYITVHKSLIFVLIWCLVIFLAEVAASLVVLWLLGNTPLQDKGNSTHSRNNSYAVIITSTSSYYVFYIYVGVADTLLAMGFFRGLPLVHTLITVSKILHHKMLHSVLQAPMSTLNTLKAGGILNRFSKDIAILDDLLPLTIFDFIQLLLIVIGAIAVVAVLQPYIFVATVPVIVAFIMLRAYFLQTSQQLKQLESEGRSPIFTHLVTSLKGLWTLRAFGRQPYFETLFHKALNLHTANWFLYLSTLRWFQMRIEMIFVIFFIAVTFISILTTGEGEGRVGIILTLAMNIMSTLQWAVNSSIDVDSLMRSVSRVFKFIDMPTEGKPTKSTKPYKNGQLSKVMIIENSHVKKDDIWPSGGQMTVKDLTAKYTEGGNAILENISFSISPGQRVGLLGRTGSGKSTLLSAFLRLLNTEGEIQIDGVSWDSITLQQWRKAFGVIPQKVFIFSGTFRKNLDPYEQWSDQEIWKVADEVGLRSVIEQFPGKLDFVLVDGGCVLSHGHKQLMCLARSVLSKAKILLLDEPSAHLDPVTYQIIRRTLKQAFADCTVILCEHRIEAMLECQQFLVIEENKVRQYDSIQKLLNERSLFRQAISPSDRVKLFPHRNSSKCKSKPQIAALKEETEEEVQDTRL

In turn, `CNc1nc(Nc2ccccc2)nc(OCC(F)(F)C(F)F)n1` [compound 12, N-methyl-N′-phenyl-6-(2,2,3,3-tetrafluoropropoxy)-1,3,5-triazine-2,4-diamine] displayed an EC50 of around 30 nM. In addition, the “CFTR activation (short-circuit current), in words” value (shortened to “CFTR activation … in words”) under setting [1] was “fully activated CFTR chloride conductance; also recorded: full CFTR activation”. For the same molecule, the EC50 under setting [2] is 31 nM.
Consider `CCN(CC)c1nc(Nc2ccc3ncsc3c2)nc(OC(C(F)(F)F)C(F)(F)F)n1` [6k, N′-(1,3-Benzothiazol-6-yl)-N,N-diethyl-6-[(1,1,1,3,3,3-hexafluoropropan-2-yl)oxy]-1,3,5-triazine-2,4-diamine], for which the “CFTR activation … in words” value under setting [1] is recorded as “full CFTR activation”. In addition, the EC50 under setting [2] was 30 nM.
In the case of `CC(C)(C)c1cc(C(C)(C)C)c(NC(=O)c2c[nH]c3ccccc3c2=O)cc1O` [VX-770, reference compound], the “CFTR activation … in words” value under setting [1] is “relatively little activity; also recorded: relatively weak activity”.
In the case of `Nc1ccc([N+](=O)[O-])cc1-c1nc2ccccc2n(Cc2ccccc2)c1=O` [CFTRact-J027, 3-(2-amino-5-nitrophenyl)-1-benzylquinoxalin-2(1H)-one], the “activation of CFTR at 3 μM” value (3 μM, wild-type CFTR, FRT cells) was “nearly full activation”. Further, the “CFTR activation … in words” value under setting [1] is “fully activated CFTR chloride conductance”.
Take `CCN(CC)c1nc(Nc2ccccc2)nc(OC(C(F)(F)F)C(F)(F)F)n1` [CFTRact-K089, N,N-Diethyl-6-[(1,1,1,3,3,3-hexafluoropropan-2-yl)oxy]-N′-phenyl-1,3,5-triazine-2,4-diamine]: where the note is “100% = 20 μM forskolin”, the “CFTR activation, Vmax” value is listed as around 50 % Vmax. Besides, the “CFTR activation … in words” value under setting [1] is “fully activated CFTR”. Moreover, the EC50 under setting [2] was around 250 nM.

Broadly, the EC50 is the concentration at which the effect is half-maximal.
